Source: US8779156B2, “Analogues for the treatment or prevention of flavivirus infections” (Vertex Pharmaceuticals Incorporated, priority 2010, dated 2014)

Tested on: HCV (1b) replicon, Huh-ET cells
Assay: Cell-based luciferase reporter HCV (1b) RNA replication assay
Conditions: Hepatitis C virus, 96 h; HCV 1b replicon, luciferase, 4 days incubation; read-out: EC50_1b
Excerpt: Cell-Based Luciferase Reporter HCV (Ib) RNA Replication Assay Cell Culture
Replicon cell lines Huh-5.2 are derived from the Huh-7 hepatocarcinoma cell line are maintained in culture as generally described in Krieger, N; Lohmann, V; Bartenschlager, R. Enhancement of hepatitis C virus RNA replication by cell culture-adaptive mutations. J. Virol. 2001, 75, 4614-4624. The Huh-5.2 cells contain the highly cell culture-adapted replicon I389luc-ubi-neo/NS3-375.1 construct that carries, in addition to the neomycin gene, an integrated copy to the firefly luciferase gene (Krieger, N; Lohmann, V; Bartenschlager, R. Enhancement of hepatitis C virus RNA replication by cell culture-adaptive mutations. J. Virol. 2001, 75, 4614-4624). This cell line allows measurement of HCV RNA replication and translation by measuring luciferase activity. It has been previously shown that the luciferase activity tightly follows the replicon RNA level in these cells (Krieger, N; Lohmann, V; Bartenschlager, R. Enhancement of hepatitis C virus RNA replication by cell culture-adaptive mutations. J. Virol. 2001, 75, 4614-4624). The Huh-ET cell line has the same features as those mentioned for Huh-5.2 cell line, except that ET cells are more robust and contain an adaptative mutation in the HCV NS4B gene instead of NS5A. Both cell lines are maintained in cultures at a sub-confluent level (<85%) as the level of replicon RNA is highest in actively proliferating cells. The culture media used for cell passaging consist of DMEM (Gibco BRL Laboratories, Mississauga, ON, Canada) supplemented with 10% foetal bovine serum with 1% penicilin/streptomycin, 1% glutamine, 1% sodium pyruvate, 1% non-essential amino acids, and 180 μg/ml of G418 final concentration. Cells are incubated at 37° C., in an atmosphere of 5% CO2 and passaged twice a week to maintain sub-confluence.
Approximately 3000 viable Huh-ET cells (100 μl) are plated per well in a white opaque 96-well microtiter plate. The cell culture media used for the assay is the same as described above except that it contains no G418 and no phenol red. After an incubation period of 3-4 hours at 37° C. in a 5% CO2 incubator, compounds (100 μl) are added at various concentrations. Cells are then further incubated for 4 days at 37° C. in a 5% CO2 incubator. Thereafter, the culture media is removed and cells are lysed by the addition of 95 μL of the luciferase buffer (luciferin substrate in buffered detergent). Cell lysates are incubated at room temperature and protected from direct light for at least 10 minutes. Plates are read for luciferase counts using a luminometer (Wallac MicroBeta Trilux, Perkin Elmer™, MA, USA).
Curves are fitted to data points using nonlinear regression analysis, and IC50s are interpolated from the resulting curve using GraphPad Prism software, version 2.0 (GraphPad Software Inc., San Diego, Calif., USA).

For `COC(=O)N(C)C(C(=O)N1C[C@@H](C)C[C@H]1c1nc(-c2ccc(C#Cc3ccc4[nH]c([C@@H]5C[C@H](C)CN5C(=O)C(C(C)C)N(C)C(=O)OC)nc4c3)cc2)c[nH]1)C(C)C` (stereo in doubt) [Compound 10, Methyl N-[(1S)-1-[(2S,4S)-2-[4-[4-[2-[2-[(2S,4S)-1-[(2S)-2-[methoxycarbonyl-(methyl)amino]-3-methyl-butanoyl]-4-methyl-pyrrolidin-2-yl]-1H-benzimidazol-5-yl]ethynyl]phenyl]-1H-imidazol-2-yl]-4-methyl-pyrrolidine-1-carbonyl]-2-methyl-propyl]-N-methyl-carbamate], the EC50 was no more than 5 nM.

With `O=C(OCc1ccccc1)N1CCCC1c1ncc(-c2ccc(C#Cc3ccc4[nH]c(C5CCCCN5C(=O)OCc5ccccc5)nc4c3)cc2)[nH]1` (centres unmarked) [Compound 1] the EC50 was 5 to 5000 nM.

Compound `O=C(OCc1ccccc1)N1CCC[C@H]1c1ncc(-c2ccc(C#Cc3ccc4[nH]c([C@@H]5CCCN5C(=O)OCc5ccccc5)nc4c3)cc2)[nH]1` [Compound 2] has an EC50 of 5 to 5000 nM.

`COC(=O)N[C@H](C(=O)N1CCC[C@H]1c1nc(-c2ccc(-c3ccc4[nH]c([C@@H]5CCCN5C(=O)[C@@H](NC(=O)OC)C(C)C)nc4c3)cc2)c[nH]1)C(C)C` [Compound 3, Methyl N-[(1S)-1-[(2S)-2-[4-[4-[2-[(2S)-1-[(2S)-2-(methoxycarbonylamino)-3-methyl-butanoyl]pyrrolidin-2-yl]-1H-benzimidazol-5-yl]phenyl]-1H-imidazol-2-yl]pyrrolidine-1-carbonyl]-2-methyl-propyl]carbamate] gave an EC50 of no more than 5 nM.

Work on `COC(=O)N(C)[C@H](C(=O)N1C[C@@H](C)C[C@H]1c1ncc(-c2ccc(-c3ccc(-c4ccc5[nH]c([C@@H]6C[C@H](C)CN6C(=O)[C@H](C(C)C)N(C)C(=O)OC)nc5c4)cc3)cc2)[nH]1)C(C)C` [Compound 6, Methyl N-[(1S)-1-[(2S,4S)-2-[4-[4-[4-[2-[(2S,4S)-1-[(2S)-2-[methoxycarbonyl(methyl)amino]-3-methyl-butanoyl]-4-methyl-pyrrolidin-2-yl]-1H-benzimidazol-5-yl]phenyl]phenyl]-1H-imidazol-2-yl]-4-methyl-pyrrolidine-1-carbonyl]-2-methyl-propyl]-N-methyl-carbamate] yielded an EC50 of no more than 5 nM.

For `COC(=O)N[C@H](C(=O)N1C[C@@H](C)C[C@H]1c1ncc(-c2ccc(-c3ccc(-c4ccc5[nH]c([C@@H]6C[C@H](C)CN6C(=O)[C@H](C(C)C)N(C)C(=O)OC)nc5c4)cc3)cc2)[nH]1)C(C)C` [Compound 7, ((S)-1-{(2S,4S)-2-[5-(4′-{2-[(2S,4S)-1-((S)-2-Methoxycarbonylamino-3-methyl-butyryl)-4-methyl-pyrrolidin-2-yl]-1H-imidazol-4-yl}-biphenyl-4-yl)-1H-benzoimidazol-2-yl]-4-methyl-pyrrolidine-1-carbonyl}-2-methyl-propyl)-methyl-carbamic acid methyl ester], the EC50 was no more than 5 nM.

In the case of `COC(=O)N[C@H](C(=O)N1C[C@@H](C)C[C@H]1c1nc2cc(-c3ccc(-c4ccc(-c5cnc([C@@H]6C[C@H](C)CN6C(=O)[C@H](C(C)C)N(C)C(=O)OC)[nH]5)cc4)cc3)ccc2[nH]1)C(C)C` [Compound 8, Methyl ((S)-1-((2S,4S)-2-(4-(4′-(2-((2S,4S)-1-((S)-2-((methoxycarbonyl)amino)-3-methylbutanoyl)-4-methylpyrrolidin-2-yl)-3H-benzo[d]imidazol-6-yl)-[1,1′-biphenyl]-4-yl)-1H-imidazol-2-yl)-4-methylpyrrolidin-1-yl)-3-methyl-1-oxobutan-2-yl)(methyl)carbamate], the EC50 is reported as no more than 5 nM.

For `COC(=O)N[C@H](C(=O)N1C[C@@H](C)C[C@H]1c1nc(-c2ccc(C#Cc3ccc4[nH]c([C@@H]5C[C@H](C)CN5C(=O)[C@@H](NC(=O)OC)C(C)C)nc4c3)cc2)c[nH]1)C(C)C` [Compound 9, Methyl N-[(1S)-1-[(2S,4S)-2-[4-[4-[2-[2-[(2S,4S)-1-[(2S)-2-(methoxycarbonylamino)-3-methyl-butanoyl]-4-methyl-pyrrolidin-2-yl]-1H-benzimidazol-5-yl]ethynyl]phenyl]-1H-imidazol-2-yl]-4-methyl-pyrrolidine-1-carbonyl]-2-methyl-propyl]carbamate], the EC50 was no more than 5 nM.

`COC(=O)N[C@H](C(=O)N1C[C@@H](C)C[C@H]1c1nc(C#Cc2ccc(-c3ccc4[nH]c([C@@H]5C[C@H](C)CN5C(=O)[C@@H](NC(=O)OC)C(C)C)nc4c3)cc2)c[nH]1)C(C)C` [Compound 12, Methyl N-[(1S)-1-[(2S,4S)-2-[4-[2-[4-[2-[(2S,4S)-1-[(2S)-2-(methoxycarbonylamino)-3-methyl-butanoyl]-4-methyl-pyrrolidin-2-yl]-1H-benzimidazol-5-yl]phenyl]ethynyl]-1H-imidazol-2-yl]-4-methyl-pyrrolidine-1-carbonyl]-2-methyl-propyl]carbamate] was tested, and the EC50 was no more than 5 nM.

`COC(=O)N[C@H](C(=O)N1C[C@@H](C)C[C@H]1c1ncc(-c2csc(-c3ccc(-c4ccc5[nH]c([C@@H]6C[C@H](C)CN6C(=O)[C@@H](NC(=O)OC)C(C)C)nc5c4)cc3)c2)[nH]1)C(C)C` [Compound 14] showed an EC50 of no more than 5 nM.

In the case of `COC(=O)N[C@H](C(=O)N1C[C@@H](C)C[C@H]1c1nc(C)c(-c2ccc(-c3ccc(-c4ccc5[nH]c([C@@H]6C[C@H](C)CN6C(=O)[C@@H](NC(=O)OC)C(C)C)nc5c4)cc3)cc2)[nH]1)C(C)C` [Compound 15, Methyl N-[(1S)-1-[(2S,4S)-2-[5-[4-[4-[2-[(2S,4S)-1-[(2S)-2-(methoxycarbonylamino)-3-methyl-butanoyl]-4-methyl-pyrrolidin-2-yl]-1H-benzimidazol-5-yl]phenyl]phenyl]-4-methyl-1H-imidazol-2-yl]-4-methyl-pyrrolidine-1-carbonyl]-2-methyl-propyl]carbamate], the EC50 is reported as no more than 5 nM.

`COC(=O)N[C@H](C(=O)N1C[C@@H](C)C[C@H]1c1nc(-c2cc3sc(-c4ccc5[nH]c([C@@H]6C[C@H](C)CN6C(=O)[C@@H](NC(=O)OC)C(C)C)nc5c4)cc3s2)c[nH]1)C(C)C` [Compound 16, Methyl N-[(1S)-1-[(2S,4S)-2-[4-[5-[2-[(2S,4S)-1-[(2S)-2-(methoxycarbonylamino)-3-methyl-butanoyl]-4-methyl-pyrrolidin-2-yl]-1H-benzimidazol-5-yl]thieno[3,2-b]thiophen-2-yl]-1H-imidazol-2-yl]-4-methyl-pyrrolidine-1-carbonyl]-2-methyl-propyl]carbamate] gave an EC50 of no more than 5 nM.

Compound `CC[C@H]1C[C@@H](c2nc(-c3ccc(-c4ccc(-c5ccc6[nH]c([C@@H]7C[C@H](CC)CN7C(=O)[C@@H](NC(=O)OC)C(C)C)nc6c5)cc4)cc3)c[nH]2)N(C(=O)[C@@H](NC(=O)OC)C(C)C)C1` [Compound 17] has an EC50 of no more than 5 nM.

Compound `COC(=O)N[C@H](C(=O)N1C[C@@H](C)C[C@H]1c1nc(-c2cc3sc(-c4ccc5[nH]c([C@@H]6C[C@H](C)CN6C(=O)[C@@H](NC(=O)OC)C(C)C)nc5c4)cc3s2)c(C)[nH]1)C(C)C` [Compound 19] has an EC50 of no more than 5 nM.

`COC(=O)N[C@H](C(=O)N1C[C@@H](C)C[C@H]1c1nc(-c2ccc3cc(-c4ccc5[nH]c([C@@H]6C[C@H](C)CN6C(=O)[C@@H](NC(=O)OC)C(C)C)nc5c4)ccc3c2)c[nH]1)C(C)C` [Compound 20] was tested, and the EC50 was no more than 5 nM.

Work on `COC(=O)N[C@H](C(=O)N1CC(C)(C)C[C@H]1c1nc(-c2ccc(-c3ccc(-c4ccc5[nH]c([C@@H]6CC(C)(C)CN6C(=O)[C@@H](NC(=O)OC)C(C)C)nc5c4)cc3)cc2)c[nH]1)C(C)C` [Compound 23] yielded an EC50 of no more than 5 nM.

In the case of `COC(=O)N[C@H](C(=O)N1C[C@@H](C)C[C@H]1c1ncc(-c2ccc(-c3cc4sc(-c5ccc6nc([C@@H]7C[C@H](C)CN7C(=O)[C@@H](NC(=O)OC)C(C)C)[nH]c6c5)cc4s3)cc2)[nH]1)C(C)C` [Compound 25], the EC50 is reported as no more than 5 nM.

`COC(=O)N[C@H](C(=O)N1C[C@@H](C)C[C@H]1c1nc(-c2ccc(-c3ccc4nc([C@@H]5C[C@H](C)CN5C(=O)[C@@H](NC(=O)OC)C(C)C)[nH]c4c3)cc2)c(-c2cc3sccc3s2)[nH]1)C(C)C` [Compound 26] showed an EC50 of no more than 5 nM.

`COC(=O)N[C@H](C(=O)N1C[C@@H](C)C[C@H]1c1nc(-c2ccc(-c3ccc(-c4ccc5[nH]c([C@@H]6C[C@H](C)CN6C(=O)[C@@H](NC(=O)OC)C(C)C)nc5c4)s3)cc2)c[nH]1)C(C)C` [Compound 27] was tested, and the EC50 was no more than 5 nM.

In the case of `COC(=O)N[C@H](C(=O)N1C[C@@H](C)C[C@H]1c1nc(-c2ccc(-c3ccc(-c4cc(C)c5[nH]c([C@@H]6C[C@H](C)CN6C(=O)[C@@H](NC(=O)OC)C(C)C)nc5c4)cc3)cc2)c[nH]1)C(C)C` [Compound 28], the EC50 is reported as no more than 5 nM.
